This is an account of results in patent US20150031760A1, “PHARMACEUTICAL COMPOSITION FOR PREVENTING OR TREATING NERVOUS SYSTEM DISORDERS COMPRISING SULFURETIN OR PHARMACEUTICALLY ACCEPTABLE SALT THEREOF” (Research and Business Foundation SUNGKYUNKWAN UNIVERSITY, priority 2010, published 2015).

No end group written: not given here.

A short description of data set [1]: MTT (cell viability) test, induced cell death in SH-SY5Y cells. Conditions: human. As to the method:
(§1) The incubator was maintained at a temperature of 37° C., and a mixed gas of 95% air and 5% CO2 was continuously supplied thereto to provide suitable conditions for cell culture. The cells were cultured in a 6-well plate or a 96-well plate at each of densities of 1×10^6 and 2×10^4 cells/well 24 hours before the experiment. […] Sulfuretin was used in ethanol and used at a final concentration of 0.1% or less.
To measure cell viability, an MTT reduction assay was used. An MTT solution was added to each well of the 96-well plate (in which the cells have been cultured) to a final concentration of 0.5 mg/ml. The plate was incubated in an incubator for 2 hours, and the medium and the MIT solution were removed, after which DMSO was added thereto and stirred. When DMSO was completely dissolved, the UV absorbance at 540 nm was measured using a microplate reader (Molecular device, USA).
The measured absorbance was substituted into the following equation to calculate cell viability:
Cell viability (%)=[(O.D. of control−O.D. of test group)/O.D. of control]×100

Data set [2] is described as follows: MTT (cell viability) test, corticosterone-induced cell death in PC12 cells. Format: cell-based. Conditions: rat. On the procedure:
For the experiment shown in FIG. 3, PC12 cells were cultured in DMEM medium (Hyclone, Thermo, USA) containing 10% FBS, 5% horse serum and antibiotics (Gibco-BRL, USA). […] The concentration of corticosterone was determined to be 400 μM after evaluation of cell viability.

Data set [3] has as its system SH-SY5Y cells. The data set is described as follows: LDH secretion (cytotoxicity) test. Format: cell-based, human. As to the method:
as §1
To measure LDH secretion (cytotoxicity), an LDH cytotoxicity assay kit was used. 50 μl of the medium was taken from each well of the 96-well plate (in which the cells have been cultured) and dispensed into each well of a fresh 96-well plate, and 50 μl of a reaction reagent was added to each well, after which the plate was shielded from light. The plate was incubated in an incubator for 30 minutes, and the UV absorbance at 490 nm was measured using a microplate reader (Molecular device, USA).
The measured absorbance was substituted into the following equation to calculate LDH secretion:
LDH secretion (%)=(LDH secretion O.D. in medium/total LDH secretion O.D.)×100

Data set [4] deals with SH-SY5Y cells. The data set is described as follows: Inhibition of ROS production (DCFH-DA fluorescence). Format: cell-based, human. Conditions: hydrogen peroxide alone, 30 minutes; control 102% or less. On the procedure: as §1
In order to measure ROS elimination activity, cells were labeled with DCFH-DA fluorescence, and quantitative analysis was performed using a fluorescence meter.
Specifically, the 6-well plate in which the cells have been cultured was pretreated with sulfuretin for 2 hours, and then reacted with hydrogen peroxide for 30 minutes to induce ROS. Then, 10 μl of 10 mM DCFH-DA was added to the plate and allowed to react with the cells for 30 minutes. Herein, DCFH-DA in the incubator was covered with a foil such that it would not be exposed to light. The cells that reacted with the DCFH-DA fluorescent substance were detached using cold PBS and centrifuged at 400 g for 3 minutes. The centrifugation process was repeated twice to wash the fluorescent substance. The washed cells were briefly stirred with 1 ml of PBS, and 100 μl was dispensed into each of a fresh 96-well plate. Then, fluorescence was measured at an excitation wavelength of 488 nm and an emission wavelength of 515 nm using a fluorescence meter (Perkinelmer, USA).
The measured value was substituted into the following equation to calculate ROS production:
ROS production (%)=[(O.D. of control−O.D. of test group)/O.D. of control]×100

Data set [5] has as its system SH-SY5Y cells. The data set is described as follows: Inhibition of intracellular [Ca2+] influx (Fura-2-AM fluorescence). Format: cell-based, human. The conditions noted are these: hydrogen peroxide alone, 30 minutes; normal control 281 nM or less. On the procedure: as §1
In order to measure inhibitory effects on intracellular [Ca^2+] influx caused by oxidative stress, cells were labeled with Fura-2-AM fluorescence, and quantitative analysis was carried out using a fluorescence meter. Specifically, 10 μl of 5 μM Fura-2-AM was added to each well of the 6-well plate (in which the cells have been cultured) and then allowed to react for 30 minutes. Herein, Fura-2-AM in the incubator was covered with a silver foil such that it would not be exposed to light. After completion of the incubation, the plate was pretreated with sulfuretin for 30 minutes, and then reacted with hydrogen peroxide for 30 minutes to induce the intracellular influx of [Ca^2+]. Then, the cells that reacted with the Fura-2-AM fluorescent substance were washed twice with cold HEPES and detached with HEPES. Then, the cells were centrifuged at 400 g for 3 minutes. The supernatant was removed carefully, stirred weakly with 0.5 ml of HEPES buffer, and then 150 μl was dispensed into each well of a fresh 96-well plate. The fluorescence of the sample dispensed into the fresh 96-well plate was measured at an excitation wavelength of […] and an emission wavelength of 520 nm using a fluorescence meter (Perkinelmer, USA).
The measured value was substituted into the following equation to calculate intracellular [Ca^2+] nM: […]

Data set [6] deals with SH-SY5Y cells. In words: Inhibition of mitochondrial membrane potential (MMP) damage (rhodamine-123). Format: cell-based, human. Conditions: hydrogen peroxide alone, 30 minutes; normal control 99% or less. On the procedure:
as §1
In order to measure the inhibition of MMP damage, cells were labeled with rhodamine-123 fluorescence, and quantitative analysis was performed using a fluorescence meter. Specifically, the 6-well plate in which the cells have been cultured was pretreated with sulfuretin for 30 minutes and then reacted with hydrogen peroxide for 30 minutes to induce MMP damage. Then, 10 μl of 10 μM rhodamine-123 was added to each well of the plate and allowed to react for 30 minutes. Herein, rhodamine-123 in the incubator was covered with a silver foil such that it would not be exposed to light. The cells that reacted with the rhodamine-123 fluorescent substance were detached with cold PBS and centrifuged at 400 g for 3 minutes. The centrifugation process was repeated twice to wash the fluorescent substance. The washed cells were stirred briefly with 0.5 ml of PBS, and 100 μl was dispensed into each well of a fresh 96-well plate. The fluorescence of the cells was measured at an excitation wavelength of 480 nm and an emission wavelength of 530 nm using a fluorescence meter (Perkinelmer, USA).
The measured fluorescence was substituted into the following equation to calculate ΔΨm:
ΔΨm(%)=[(O.D. of control−O.D. of test group)/O.D. of control]×100

The next data set has as its system PARP. The data set is described as follows: Western blot, PARP expression. Format: cell-based, human. Conditions: SH-SY5Y cells; hydrogen peroxide alone, 24 hours; normal control 100%. On the procedure: as §1
(§2) In order to identify the effect of sulfuretin on the expression of proteins related to dementia, Alzheimer's disease, Parkinson's disease and strokes, a Western blot test was carried out.
(§3) After 24 hours, the supernatant of each well was collected and centrifuged at 400 g for 3 minutes, and the cells were washed with cold PBS and lysed with 100 μl of T-PER lysis buffer (Thermo, USA) for 30 minutes. The lysates were centrifuged at 10000 g at 4° C. for 15 minutes, and the supernatants were stored at […] until use as test samples. Proteins were quantitatively analyzed using a BCA assay kit (Thermo, USA) and separated within 8.5-12% SDS gel and then transferred to PVDF membranes. To examine the expression of the proteins, the development of fluorescence was analyzed by enhanced chemiluminescence (ECL). Specifically, the membrane was blocked with 5% skimmed non-fat milk for 1 hour and labeled with the primary antibodies, PARP, caspase-3, phospho-p38, phospho-JNK and β-actin at 4° C. overnight. Then, the membrane was washed three times with Tris-tween buffered saline (TTBS), and then labeled with horseradish peroxidase (HRP)-conjugated anti-rabbit and anti-mouse secondary antibodies at room temperature for 1 hour. Then, the membrane was washed five times with TTBS for 10 minutes. The washed film was developed by ECL using x-ray films, and concentrations were quantitatively analyzed using quantitative analysis program (Fujifilm, Japan).
(In general: Immunoblotting shows a protein as a band on a membrane.)

The test system of the next data set is caspase-3. The data set is described as follows: Western blot, caspase-3 expression. Format: cell-based, human. Conditions: SH-SY5Y cells; hydrogen peroxide alone, 24 hours; normal control 100%. On the procedure:
as §1, §2, §3

A further data set relates to phospho-p38. In words: Western blot, phospho-p38 expression. Format: cell-based, human. The conditions noted are these: SH-SY5Y cells; hydrogen peroxide alone, 24 hours; normal control 100%. As to the method:
as §1, §2, §3

The next data set relates to phospho-JNK. In words: Western blot, phospho-JNK expression. The format is cell-based, human. Conditions: SH-SY5Y cells; hydrogen peroxide alone, 24 hours; normal control 100%. As to the method:
as §1, §2, §3

In data set [7] the test system is mice. The data set is described as follows: Scopolamine-induced cognitive impairment, spontaneous alternation behavior Y-maze test. Conditions: scopolamine 0.5 mg/kg, i.p., compared with the control group (p<0.05). Format: in vivo. As to the method: (§4) Male ICR mice (4-weeks-old, 18-20 g) were purchased from Koatech Co., Ltd. (Pyongtaek, Korea). Mice were housed 10 per cage, allowed access to water and food ad libitum, and maintained in constant temperature (23±1° C.) and humidity (55±5%) conditions under a 12 hour light/dark cycle (lights on 07:00 to 19:00 h). All experiments were conducted in accord with the NIH Guide for the Care and Use of Laboratory Animals and with the approval of the Institutional Animal Care and Use Committee of Sungkyunkwan University.
The spontaneous alternation behavior was measured by Y-maze which consists of a horizontal maze (30 cm long and 5 cm wide, with walls 12 cm high) with three arms (labeled A, B, and C). The maze floor and walls are constructed of dark grey, polyvinyl plastic. Mice were initially placed within one arm, and the number of alternations (i.e., consecutive entry sequences of ABC, CAB, or BCA but not BAB) and the number of arm entries were manually recorded for each mouse over an 8 minutes period. One hour before each test, the mice were given sulfuretin (0.25, 0.5, or 1 mg/kg, p.o.). After 30 minutes, memory impairment was induced by administering scopolamine (0.5 mg/kg, i.p.). […] The percentage alternation was calculated according to the following equation: Percentage alternation=[(Number of alternations)/(Total arm entries−2)]×100. […]

In data set [8] the test system is mice. The data set is described as follows: Scopolamine-induced learning and memory deficits, step-through passive avoidance test. Format: in vivo. The conditions noted are these: scopolamine 0.5 mg/kg, i.p. (p<0.05). On the procedure: as §4
Assessment of the training or test trials of the passive avoidance test was carried out in identical illuminated and non-illuminated compartments (12×10×12 cm) containing 2-mm stainless steel rods spaced 0.5 cm apart. A 50 W lamp positioned 1 meter above both chambers illuminated the apparatuses. Briefly, the mice underwent two separate trials, a training trial and a test trial 24 hours later. For the training trial, mice were initially placed in the clear chamber. When they entered the dark chamber, the door closed and a 3-sec electrical foot shock (0.5 mA) was delivered through the stainless steel rods. One hour before each training trial, mice were given sulfretin (0.25, 0.5, or 1 mg/kg, p.o.). After 30 minutes, memory impairment was induced by administering scopolamine (0.5 mg/kg, i.p.). Twenty-four hours after the training trial, mice were placed in the illuminated chamber for the test trial. The time for the mouse to enter the dark compartment after the door opening was defined as latency for both training and test trials. Latencies were recorded for up to 300 s. To avoid a ceiling effect in unimpaired animals, sulfuretin alone was administered 1 hour before the training trial without scopolamine treatment. The intensity of electrical foot shock was set at 0.25 mA for 3 seconds. This lower intensity shock allowed for a behavioral window through which to detect any enhancing effect of sulfuretin.

Data set [9] deals with SH-SY5Y cells. The data set is described as follows: LDH assay, amyloid beta25-35-induced cytotoxicity. Format: cell-based, human. Conditions: 20 μM amyloid beta25-35 alone for 24 h, versus control cells (p<0.001).
Another data set relates to Tau. In words: Western blot, amyloid beta25-35-induced hyperphosphorylation of Tau. Format: cell-based, human. The conditions noted are these: SH-SY5Y cells; 20 μM amyloid beta25-35 alone, compared with control samples (p<0.05 and p<0.01).

As usually defined, the viability is the share of living cells, or the viability signal relative to a control. A high value points to less harm to the cells. For `NCCc1cc(O)c(O)cc1O` [6-hydroxydopamine, reference compound], in data set [1], the viability at 200 µM was no less than 69%.

The molecule `C[C@]12C[C@H](O)[C@H]3[C@@H](CCC4=CC(=O)CC[C@@]43C)[C@@H]1CC[C@@H]2C(=O)CO` [corticosterone, Corticosterone, reference compound] returned a viability at 400 µM in data set [2] of no less than 55%.

In turn, `OO` [hydrogen peroxide, reference compound] had a viability at 400 µM in [1] (cell viability) of no less than 55%. The molecule also yielded an LDH secretion with SH-SY5Y cells [3] (hydrogen peroxide alone, normal control 11% or less) of no less than 80%. For the same molecule, in the data set with SH-SY5Y cells [4], the ROS production is no less than 148%. For the same molecule, the “intracellular [Ca2+] influx” value with SH-SY5Y cells [5] was no less than 600 nM. Also, the “MMP (ΔΨm)” value in the data set on SH-SY5Y cells [6] is reported as no more than 55%. Also, in the data set on PARP, the PARP expression is listed as no more than 38%. The molecule further had a caspase-3 expression in the data set with caspase-3 of no more than 40%. In the data set on phospho-p38, the phospho-p38 expression is reported as no less than 133%. Moreover, the phospho-JNK expression in the data set on phospho-JNK is recorded as no less than 173%.

On to `CN1[C@@H]2C[C@@H](OC(=O)[C@H](CO)c3ccccc3)C[C@H]1[C@@H]1O[C@@H]12` [scopolamine, reference compound], for which the spontaneous alternation behavior entry in the data set with mice [7] is given as “significantly decreased”. Moreover, the “step-through latency time (test trial)” value in the data set on mice [8] is “decreased”.

Molecule “GSNKGAIIGLM [beta-amyloid, amyloid-beta 25-35 fragment, reference compound]” returned an LDH secretion with SH-SY5Y cells [3] (beta-amyloid alone, normal control 12% or less) of no less than 15%. Besides, in the data set on SH-SY5Y cells [9], the “LDH activity (LDH release)” value is “increased significantly”. The “phosphorylation of Tau proteins” value in the data set with Tau was “rapidly increased”.
